Data: patent US6150385A, “1,3,4-thiadiazoles useful for the treatment of CMV infections” (Pharmacia & Upjohn Company, priority 1999, dated 2000)

Target: T1, HCMV polymerase (Human cytomegalovirus, UniProt P08546)
T1 construct: made in house; host or cells: SF-9 insect cells infected with recombinant baculovirus
Assay: HCMV polymerase assay (scintillation proximity assay)
Assay type: biochemical
Details: percentage of inhibition at 25 μM concentration in CMV polymerase assay
Summary of the method: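 Values are percent inhibition at 25 μM, measured by scintillation proximity after capture of biotinylated poly(dA)-oligo(dT) (6 nM) extended with 90 nM 3H-dTTP. Recombinant SF-9-derived enzyme reacted 30 min at 25 or 37 °C in HEPES pH 7.5/KCl/MgCl2/BSA buffer, ±2 mM CHAPS, before EDTA termination.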

T1 sequence (P08546 whole entry): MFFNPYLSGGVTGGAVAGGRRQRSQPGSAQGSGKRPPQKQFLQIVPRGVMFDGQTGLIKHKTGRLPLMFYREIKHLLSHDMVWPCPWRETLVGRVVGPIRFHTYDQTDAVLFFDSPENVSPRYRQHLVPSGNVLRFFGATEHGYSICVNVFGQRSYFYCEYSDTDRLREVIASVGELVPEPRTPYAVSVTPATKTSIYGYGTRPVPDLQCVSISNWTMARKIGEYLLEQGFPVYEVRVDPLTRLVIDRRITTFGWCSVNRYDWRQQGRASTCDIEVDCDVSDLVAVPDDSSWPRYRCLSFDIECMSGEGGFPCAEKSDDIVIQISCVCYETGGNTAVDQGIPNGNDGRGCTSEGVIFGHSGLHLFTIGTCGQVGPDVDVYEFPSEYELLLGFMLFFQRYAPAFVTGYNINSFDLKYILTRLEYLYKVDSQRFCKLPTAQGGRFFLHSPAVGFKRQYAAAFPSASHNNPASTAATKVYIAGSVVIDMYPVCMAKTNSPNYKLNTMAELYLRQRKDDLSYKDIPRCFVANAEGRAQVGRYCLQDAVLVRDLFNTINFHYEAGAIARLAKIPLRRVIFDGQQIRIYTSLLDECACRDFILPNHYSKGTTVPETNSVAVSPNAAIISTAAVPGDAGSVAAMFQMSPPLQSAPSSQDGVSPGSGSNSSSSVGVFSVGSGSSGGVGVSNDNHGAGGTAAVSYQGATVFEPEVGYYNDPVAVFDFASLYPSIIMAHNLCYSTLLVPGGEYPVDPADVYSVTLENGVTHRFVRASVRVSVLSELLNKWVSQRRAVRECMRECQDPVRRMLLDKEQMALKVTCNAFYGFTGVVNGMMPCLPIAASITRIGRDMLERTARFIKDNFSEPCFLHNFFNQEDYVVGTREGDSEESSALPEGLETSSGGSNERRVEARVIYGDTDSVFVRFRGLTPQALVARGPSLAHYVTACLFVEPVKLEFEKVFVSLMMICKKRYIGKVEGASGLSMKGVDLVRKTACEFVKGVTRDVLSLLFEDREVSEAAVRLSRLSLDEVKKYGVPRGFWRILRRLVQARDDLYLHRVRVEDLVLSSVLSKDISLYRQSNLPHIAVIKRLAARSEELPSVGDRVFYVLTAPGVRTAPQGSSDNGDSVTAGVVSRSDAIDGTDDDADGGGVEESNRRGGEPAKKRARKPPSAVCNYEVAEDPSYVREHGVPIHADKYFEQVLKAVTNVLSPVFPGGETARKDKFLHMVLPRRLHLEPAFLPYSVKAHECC

SMILES	inhibition at 25 µM [%]
O=C(/C=C/c1ccccc1)Nc1nnc(NCCCN2CCCC2=O)s1 [compound 130, (E)-N-(5-{[3-(2-oxo-1-pyrrolidinyl)propyl]amino}-1,3,4-thiadiazol-2-yl)-3-phenyl-2-propenamide]	58.2
O=C(Nc1nnc(NCCCCc2ccccc2)s1)c1ccc([N+](=O)[O-])o1 [compound 131, 5-nitro-N-{5-[(4-phenylbutyl)amino]-1,3,4-thiadiazol-2-yl}-2-furamide]	58
CCOC(=O)N1CCC(Nc2nnc(NC(=O)c3c(Cl)cccc3Cl)s2)CC1 [compound 132, ethyl 4-({5-[(2,6-dichlorobenzoyl)amino]-1,3,4-thiadiazol-2-yl}amino)tetrahydro-1(2H)-pyridinecarboxylate]	57
O=C(/C=C/c1ccccc1)Nc1nnc(NCCCn2ccnc2)s1 [compound 133, (E)-N-(5-{[3-(1H-imidazol-1-yl)propyl]amino}-1,3,4-thiadiazol-2-yl)-3-phenyl-2-propenamide]	57
COc1ccc(CNc2nnc(NC(=O)c3ccc(I)cc3)s2)cc1OC [compound 134, N-{5-[(3,4-dimethoxybenzyl)amino]-1,3,4-thiadiazol-2-yl}-4-iodobenzamide]	56.9
O=C(Nc1nnc(NCCCN2CCCC2=O)s1)c1cccc([N+](=O)[O-])c1 [compound 135, 3-nitro-N-(5-{[3-(2-oxo-1-pyrrolidinyl)propyl]amino}-1,3,4-thiadiazol-2-yl)benzamide]	56.6
CCOc1ccc2ccccc2c1C(=O)Nc1nnc(NCc2cccc3ccccc23)s1 [compound 136, 2-ethoxy-N-{5-[(1-naphthylmethyl)amino]-1,3,4-thiadiazol-2-yl}-1-naphthamide]	56.5
O=C(Nc1nnc(NCCCNC2CCCCC2)s1)c1cccc([N+](=O)[O-])c1 [compound 137, N-(5-{[3-(cyclohexylamino)propyl]amino}-1,3,4-thiadiazol-2-yl)-3-nitrobenzamide]	56.4
O=C(Nc1nnc(NCCCCc2ccccc2)s1)c1ccc(C(F)(F)F)cc1 [compound 138, N-{5-[(4-phenylbutyl)amino]-1,3,4-thiadiazol-2-yl}-4-(trifluoromethyl)benzamide]	56.2
O=C(/C=C/c1ccccc1)Nc1nnc(NCc2ccccn2)s1 [compound 139, (E)-3-phenyl-N-{5-[(2-pyridinylmethyl)amino]-1,3,4-thiadiazol-2-yl}-2-propenamide]	56.2
N#Cc1ccc(C(=O)Nc2nnc(NCc3ccc(Cl)c(Cl)c3)s2)cc1 [compound 140, 4-cyano-N-{5-[(3,4-dichlorobenzyl)amino]-1,3,4-thiadiazol-2-yl}benzamide]	56.2
CCOc1ccc2ccccc2c1C(=O)Nc1nnc(NCCc2c[nH]c3ccccc23)s1 [compound 141, 2-ethoxy-N-(5-{[2-(1H-indol-3-yl)ethyl]amino}-1,3,4-thiadiazol-2-yl)-1-naphthamide]	55.7
NS(=O)(=O)c1ccc(CCNc2nnc(NC(=O)c3ccc(Cl)c(Cl)c3)s2)cc1 [compound 142, N-(5-{[4-(aminosulfonyl)phenethyl]amino}-1,3,4-thiadiazol-2-yl)-3,4-dichlorobenzamide]	55.4
N#Cc1ccc(C(=O)Nc2nnc(NCCCCc3ccccc3)s2)cc1 [compound 143, 4-cyano-N-{5-[(4-phenylbutyl)amino]-1,3,4-thiadiazol-2-yl}benzamide]	55.4
O=C(Nc1nnc(NCc2ccc(F)cc2)s1)c1c(Cl)cccc1Cl [compound 144, 2,6-dichloro-N-{5-[(4-fluorobenzyl)amino]-1,3,4-thiadiazol-2-yl}benzamide]	55.2
CCCCCCCCCCCNc1nnc(NC(=O)c2c(OCC)ccc3ccccc23)s1 [compound 145, 2-ethoxy-N-[5-(undecylamino)-1,3,4-thiadiazol-2-yl]-1-naphthamide]	54.9
N#CCCNc1nnc(NC(=O)c2c(Cl)cccc2Cl)s1 [compound 146, 2,6-dichloro-N-{5-[(2-cyanoethyl)amino]-1,3,4-thiadiazol-2-yl}benzamide]	54.8
CCCCCCCCCCCNc1nnc(NC(=O)c2ccc(I)cc2)s1 [compound 147, 4-iodo-N-[5-(undecylamino)-1,3,4-thiadiazol-2-yl]benzamide]	54.7
CCSCCNc1nnc(NC(=O)c2ccc(I)cc2)s1 [compound 148, N-(5-{[2-(ethylsulfanyl)ethyl]amino}-1,3,4-thiadiazol-2-yl)-4-iodobenzamide]	54.6
CCCCCCCC/C=C/CCCCCCCC(=O)Nc1nnc(NCCc2c[nH]c3ccccc23)s1 [compound 149, (E)-N-(5-{[2-(1H-indol-3-yl)ethyl]amino}-1,3,4-thiadiazol-2-yl)-9-octadecenamide]	54.5
O=C(Nc1nnc(NCCCN2CCCC2=O)s1)c1cc2ccccc2s1 [compound 150, N-(5-{[3-(2-oxo-1-pyrrolidinyl)propyl]amino}-1,3,4-thiadiazol-2-yl)-1-benzothiophene-2-carboxamide]	54.5
O=C(Nc1nnc(NC2CCN(Cc3ccccc3)CC2)s1)c1c(Cl)cccc1Cl [compound 151, N-{5-[(1-benzyl-4-piperidinyl)amino]-1,3,4-thiadiazol-2-yl}-2,6-dichlorobenzamide]	54
NS(=O)(=O)c1ccc(CCNc2nnc(NC(=O)c3ccc(Br)cc3)s2)cc1 [compound 152, N-(5-{[4-(aminosulfonyl)phenethyl]amino}-1,3,4-thiadiazol-2-yl)-4-bromobenzamide]	53.9
O=C(/C=C/c1ccccc1)Nc1nnc(NCCc2c[nH]c3ccccc23)s1 [compound 153, (E)-N-(5-{[2-(1H-indol-3-yl)ethyl]amino}-1,3,4-thiadiazol-2-yl)-3-phenyl-2-propenamide]	53.7
O=C(/C=C/c1ccccc1Cl)Nc1nnc(NCC(c2ccccc2)c2ccccc2)s1 [compound 154, (E)-3-(2-chlorophenyl)-N-{5-[(2,2-diphenylethyl)amino]-1,3,4-thiadiazol-2-yl}-2-propenamide]	53.6
N#Cc1ccc(C(=O)Nc2nnc(NCc3cccc4ccccc34)s2)cc1 [compound 155, 4-cyano-N-{5-[(1-naphthylmethyl)amino]-1,3,4-thiadiazol-2-yl}benzamide]	53.3
O=C(Nc1nnc(NCc2cccnc2)s1)c1c(Cl)cccc1Cl [compound 156, 2,6-dichloro-N-{5-[(3-pyridinylmethyl)amino]-1,3,4-thiadiazol-2-yl}benzamide]	53.2
CCOc1ccc2ccccc2c1C(=O)Nc1nnc(NC2CCCCCC2)s1 [compound 157, N-[5-(cycloheptylamino)-1,3,4-thiadiazol-2-yl]-2-ethoxy-1-naphthamide]	53
N#Cc1ccc(C(=O)Nc2nnc(NCCCN3CCCC3=O)s2)cc1 [compound 158, 4-cyano-N-(5-{[3-(2-oxo-1-pyrrolidinyl)propyl]amino}-1,3,4-thiadiazol-2-yl)benzamide]	52.9
O=C(Nc1nnc(NCCCNC2CCCCC2)s1)c1ccc(Br)cc1 [compound 159, 4-bromo-N-(5-{[3-(cyclohexylamino)propyl]amino}-1,3,4-thiadiazol-2-yl)benzamide]	52.8
